Source: patent publication US8101570B2, “Single branch heparin-binding growth factor analogs” (BioSurface Engineering Technologies, Inc., priority 2005, dated 2012)
Like-named read-outs stand apart in the source and are kept apart here. Where a SMILES comes first, the peptide text is derived from it. Bridges are numbered along the chain shown (N, C = ends). Roman numbers before positions name the chains, in order. Where no end group is shown, it is not given here. [ ]: non-standard residue; d: D form. Hx = not defined here; Ahx = NCCCCCC(=O)O

What was measured:
human PDGF-R-alpha = molecular target: T1, human PDGF-R-alpha (Homo sapiens, UniProt P16234); assay: Surface plasmon resonance (BIAcore) binding to immobilized soluble PDGF receptor alpha; conditions: SPR, 1:1 fit; for kon: read-out: Ka (association rate constant); for koff: read-out: Kd (dissociation rate constant)
T1 construct: Soluble PDGF receptor, recombinant chimera of human PDGF-R-alpha; purchased R&D Systems
Experimental: (§1) Surface Plasmon Resonance (SPR) Analysis. Real-time biomolecular interactions were analyzed with a BIAcore 2000 system (Biacore Inc., Piscataway, N.J.). Soluble PDGF receptor, recombinant chimera of human PDGF-R-alpha and PSGF-R-beta (R &D Systems, Minneapolis, Minn.), was immobilized on research grade CM5 chips (Biacore Inc., Piscataway, N.J.). Following activation with EDC/NHS, the receptors were immobilized on activated CM5 chips. To obtain kinetic data, different concentrations of analytes in HBS-EP buffer were injected over the sensor chip at a flow rate of 50 μl/min. Peptide binding was measured in resonance units (RU). At the end of each sample injection (120 s) buffer was passed over the sensor surface to monitor the dissociation phase. Reference responses from blank flow cells were subtracted from receptor-containing flow cells for each analyte injection and the kinetic parameters for each interaction were determined by globally fitting the experimental data to a 1:1 interaction with BIAEVALUATION software (Biacore Inc., Piscataway, N.J.). The association rate constant and the dissociation rate constant (ka and kd, respectively), and the equilibrium dissociation constant (KD) are presented in the Table 3 for the receptors and PBA2-1.
as §1, with “4” for “3”

PDGF R Beta = molecular target: T2, PDGF R Beta (Homo sapiens, UniProt P09619); assay: Surface plasmon resonance (BIAcore) binding to immobilized soluble PDGF receptor beta; conditions: for kon / koff: SPR, 1:1 fit; for kon: read-out: Ka (association rate constant); for koff: read-out: Kd (dissociation rate constant)
T2 construct: Soluble PDGF receptor, recombinant chimera of human PDGF-R-alpha and PSGF-R-beta; purchased R&D Systems
Experimental: as §1
as §1, with “4” for “3”

Sup-T1 cells = assay: Sup-T1 cell proliferation; assay type: cell-based; conditions: low serum, 3 days, FIG. 2
Experimental: Cell proliferation. Sup-T1 cells were obtained from the American Type Culture Collection (Manassas, Va.) and were grown in culture. To monitor the effect of SD1-1 on cell proliferation, Sup-T1 cells were seeded at 100,000 cells per well of a 96-well plate and allowed to attach. The medium was changed to one containing low serum plus SD1-1 and the cells incubated for 3 days after which time the relative cell number was determined using a commercially available kit Referring now to FIG. 2, data in the graph below is reported as the average±SD. Commercially-available recombinant human SDF-1 (diamond) was used as a reference and positive control for comparison of proliferation stimulated by […].

C2C12 cells [1] = assay: C2C12 cell migration, trans-well insert assay; assay type: cell-based; conditions: 8 μm pore membrane coated with collagen, FIG. 3
Experimental: Cell migration. SD1-1 was evaluated for its ability to induce migration of C2C12 cells using a commercially-available cell migration assay. C2C12 cells were seeded on a trans-well insert containing an 8 μm pore size polycarbonate membrane coated with a thin layer of polymerized collagen. The inserts were placed into wells with medium containing SD1-1. Cells that migrated through the membrane were found on the bottom of the insert membrane. These cells were stained, and the stain extracted and detected on a standard microplate reader (560 nm). Referring now to FIG. 3, the results of cell migration in response to the SD1-1 peptide as compared to SDF-1 peptide or control are illustrated. Data is reported as the average±SD.

M-NSF-60 cells = assay: Augmentation of growth of M-NSF-60 cells in the presence of rhGCSF; assay type: cell-based; conditions: 0.01 ng rhGCSF, FIG. 9
Experimental: This peptide was evaluated for augmentation of growth using M-NSF-60 cells in the presence of 0.01 ng rhGCSF.

C2C12 cells [2] = assay: Alkaline phosphatase assay in C2C12 cells in the presence of recombinant BMP-7; assay type: cell-based, mouse; conditions: serum low medium containing BMP-7, FIG. 8
Experimental: This peptide was evaluated using C2C12 cells and in the presence of recombinant BMP-7 and using alkaline phosphatase production as an endpoint. Alkaline phosphatase assays were performed using mouse the pluripotent cell lines C2C12. Cells were plated in 96-well (1×10^4/well) plates and allowed 24 hours to attach. The medium was then replaced with a serum low medium containing BMP-7 and/or B7A1-6. After several days, cells were rinsed, lysed, and alkaline phosphatase activity measured using p-nitrophenylphosphate as substrate.

T1 sequence (P16234 24-528 limits assumed): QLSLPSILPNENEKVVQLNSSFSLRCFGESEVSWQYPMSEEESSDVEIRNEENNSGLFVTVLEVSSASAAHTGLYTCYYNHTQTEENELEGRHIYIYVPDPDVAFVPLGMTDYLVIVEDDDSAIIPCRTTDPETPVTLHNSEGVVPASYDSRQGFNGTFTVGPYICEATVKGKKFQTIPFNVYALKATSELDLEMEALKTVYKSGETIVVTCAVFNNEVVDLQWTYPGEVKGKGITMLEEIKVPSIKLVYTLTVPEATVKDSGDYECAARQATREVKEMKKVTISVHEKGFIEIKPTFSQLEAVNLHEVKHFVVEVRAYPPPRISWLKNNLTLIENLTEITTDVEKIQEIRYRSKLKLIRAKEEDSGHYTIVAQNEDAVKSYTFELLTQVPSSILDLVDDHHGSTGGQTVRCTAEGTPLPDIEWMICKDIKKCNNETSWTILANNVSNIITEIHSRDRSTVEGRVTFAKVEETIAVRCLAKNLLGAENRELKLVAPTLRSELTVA
T2 sequence (P09619 33-532 limits assumed): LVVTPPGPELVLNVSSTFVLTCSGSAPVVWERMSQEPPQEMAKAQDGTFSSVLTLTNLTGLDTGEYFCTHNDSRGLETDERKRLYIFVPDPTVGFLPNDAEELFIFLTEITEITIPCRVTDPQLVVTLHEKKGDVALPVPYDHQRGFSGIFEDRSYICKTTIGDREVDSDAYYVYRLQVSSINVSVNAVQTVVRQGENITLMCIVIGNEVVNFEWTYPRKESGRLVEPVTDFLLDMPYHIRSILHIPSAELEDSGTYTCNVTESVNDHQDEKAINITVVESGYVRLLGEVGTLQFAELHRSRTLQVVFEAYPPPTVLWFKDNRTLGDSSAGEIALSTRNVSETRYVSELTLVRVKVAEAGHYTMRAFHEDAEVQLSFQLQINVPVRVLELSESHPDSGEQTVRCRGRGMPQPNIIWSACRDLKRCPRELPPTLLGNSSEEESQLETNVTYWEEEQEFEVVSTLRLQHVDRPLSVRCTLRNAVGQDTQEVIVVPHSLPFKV

## CC[C@H](C)[C@H](NC(=O)[C@H](CCCNC(=N)N)NC(=O)[C@H](CCC(=O)O)NC(=O)[C@H](CC(C)C)NC(=O)[C@H](CCCCN)NC(=O)[C@H](CCCNC(=N)N)NC(=O)[C@H](CCCCN)NC(=O)[C@H](CCCNC(=N)N)NC(=O)CCCCCNC(=O)CCCCCNC(=O)CCCCCNC(=O)[C@H](CCCCNC(=O)[C@H](CCCCN)NC(=O)[C@H](CCCCN)NC(=O)[C@H](CCCNC(=N)N)NC(=O)[C@@H](NC(=O)[C@@H](NC(=O)[C@H](CCC(=O)O)NC(=O)[C@@H](NC(=O)[C@H](CCCCN)NC(=O)[C@H](CCCNC(=N)N)NC(=O)[C@@H](N)C(C)C)[C@@H](C)CC)[C@@H](C)CC)C(C)C)NC(=O)[C@H](CCCCN)NC(=O)[C@H](CCCCN)NC(=O)[C@H](CCCNC(=N)N)NC(=O)[C@@H](NC(=O)[C@@H](NC(=O)[C@H](CCC(=O)O)NC(=O)[C@@H](NC(=O)[C@H](CCCCN)NC(=O)[C@H](CCCNC(=N)N)NC(=O)[C@@H](N)C(C)C)[C@@H](C)CC)[C@@H](C)CC)C(C)C)C(=O)N[C@@H](C)C(=O)N[C@@H](CCCNC(=N)N)C(N)=O [PBA2-1, VRKIEIVRKKK(VRKIEIVRKK)HxHxHxRKRKLERIAR-amide] (I: H-VRKIEIVRKKK[Ahx][Ahx][Ahx]RKRKLERIAR-NH2 / II: H-VRKIEIVRKK; amide I:11-II:C)
Human PDGF-R-alpha; Table 3, PDGF R Alpha
  kon: 198000 M⁻¹ s⁻¹
  koff: 0.00336 s⁻¹
Human PDGF-R-alpha; Table 4, Alpha
  kon: 414000 M⁻¹ s⁻¹
  koff: 0.00965 s⁻¹
PDGF R Beta
  Kd: 20.2 nM
PDGF R Beta; Table 3, PDGF R Beta
  kon: 133000 M⁻¹ s⁻¹
  koff: 0.00296 s⁻¹
PDGF R Beta; Table 4, Beta
  kon: 353000 M⁻¹ s⁻¹
  koff: 0.00714 s⁻¹

## SDF-1: Commercially-available recombinant human SDF-1 used as a reference and positive control [reference compound]
Sup-T1 cells
  cell proliferation (relative cell number): concentration dependent induction of cell proliferation
C2C12 cells [1]
  cell migration: induced cell migration

## SFLLKALEQVRKIQYK(SFLLKALEQVRKIQY)HxHxHxRKRKLERIAR-amide (chain 1 SFLLKALEQVRKIQYK-{Hx-Hx-Hx-Arg-Lys-Arg-Lys-Leu-Glu-Arg-Ile-Ala-Arg-NH2}; reading uncertain; also: chain 2 C-terminus branched onto side chain of Lys16 of chain 1, bond at chain A 16 to a chain's C-terminus) [GCSF1]
M-NSF-60 cells
  augmentation of cellular growth: augmented cellular growth

## KPVSLSYRAPARFFESHVAK(KPVSLSYRAPARFFESHVA)HxHxHxRKRKLERIAR-amide [SD1-1]
Sup-T1 cells
  cell proliferation (relative cell number): concentration dependent induction of cell proliferation
C2C12 cells [1]
  cell migration: induced cell migration

## AISVLYFDDSSNVILKKK(AISVLYFDDSSNVILKK)HxHxHxRKRKLERIAR-amide (chain 1 AISVLYFDDSSNVILKKK-{Hx-Hx-Hx-Arg-Lys-Arg-Lys-Leu-Glu-Arg-Ile-Ala-Arg-NH2}; reading uncertain; also: chain 2 C-terminus branched onto side chain of Lys18 of chain 1, bond at chain A 18 to a chain's C-terminus) [Example B7A1-6]
C2C12 cells [2]
  effect on BMP-7 activity (alkaline phosphatase activity): dose-dependant suppression of the activity of BMP-7
